This note sets out measurements from US20160152831A1, “YELLOW COLORANT FOR HAIR DYEING, COMPOSITION FOR HAIR DYEING, AND HAIR DYEING METHOD” (HODOGAYA CHEMICAL CO., LTD., priority 2013, published 2016).

Data set [1] can be described thus: Shampooing-fastness test of dyed hair. The conditions noted are these: for Color Difference (ΔE*): before vs after test; for Color Difference (ΔE*) / Residual Ratio %: 5 cycles; for Residual Ratio %: dyeing density after test to before test. Type of data set: physicochemical, human. The procedure:
The test sample with Yellow 29 prepared in Example 1 was tested according to the shampooing-fastness test mentioned below, and the dyeing density (K/Sd) and color difference (ΔE*) before and after the test were determined. In the Table, the residual ratio (%) means the ratio of the dyeing density after the test to the dyeing density before the test.
The test sample was subjected to a cycle operation of (1) shampooing followed by (2) treatment as mentioned below, repeatedly five times in all, and then spontaneously dried at room temperature (about 20° C.).
Shampoo liquid: aqueous 5% sodium laurylsulfate solution
Bath ratio: 1/10 (mass of shampooing liquid relative to 1 g mass of dyed hair)
Processing temperature: 45° C.
Processing time: 20 minutes
Post-treatment: rinsing with water
Treatment liquid: aqueous 5% trimethylstearylammonium chloride solution
Bath ratio: 1/10 (mass of treatment liquid relative to 1 g mass of dyed hair)

Data set [2] can be described thus: Light-fastness test of dyed hair (xenon fade meter). Type of data set: physicochemical, human. The conditions noted are these: 330 W/m^2, 20 hours; for Color Difference (ΔE*): before vs after test; for Residual Ratio %: dyeing density after test to before test. The procedure: A composition for hair dyeing having a pH of 6 was prepared according to the compounding formation as shown in Table 6 by using Yellow 29 as the dye. By using the thus-prepared composition for hair dyeing, a test sample was prepared according to the same method as in Example 1. The resultant test sample was exposed to white light at an irradiation dose of 330 W/m^2 for 20 hours, by using a xenon long-life fade meter light-fastness tester Suga Test Instrument, FAL-25AX-HC-BEC Model), and the dyeing density (K/Sd) and the color values (L*, a*, b*) before and after the test, and the color difference (ΔE*) were determined. The light-fastness test was carried out under the condition where the temperature of the test sample could be from 60 to 66° C.

Turning to `Cc1ccc(N(C)/N=C/C2=[N+](C)c3ccccc3C2(C)C)cc1` [Yellow 29, C. I. Basic Yellow 29], in data set [1], the “Color Difference (ΔE*)” value was found to be 6.6 and the “Residual Ratio %” value amounted to 82%. Further, in data set [1] (compared with Yellow 87), the “shampooing-fastness” value was “extremely excellent”. Besides, in data set [2], the “light-fastness” value is listed as “excellent”, the “Color Difference (ΔE*)” value came out at 2.8 and the “Residual Ratio %” value was 89%.

Consider `Cc1nn(-c2ccccc2)c(O)c1/N=N/c1cccc([N+](C)(C)C)c1.[Cl-]` [Yellow 57, C.I. Basic Yellow 57, reference compound], for which, in data set [2], the “light-fastness” value is listed as “low”, the “Color Difference (ΔE*)” value came to 10.2 and the “Residual Ratio %” value was determined as 98%.

As to `CN(/N=C\c1cc[n+](C)cc1)c1ccccc1` [Yellow 87, C.I. Basic Yellow 87, reference compound], in data set [1], the “Color Difference (ΔE*)” value turned out to be 21.8 and the “Residual Ratio %” value amounted to 33%.
